From US20220257774A1, “AROMATIC AMINE AR AHD BET TARGETING PROTEIN DEGRADATION CHIMERA COMPOUND AND USE” (HINOVA PHARMACEUTICALS INC., priority 2019, published 2022)
Read-outs that look alike come from different tables or passages of the source.

Experiments:
[1] = system: 22RV1 cells; assay: Inhibition of the proliferation of drug-resistant prostate cancer cell 22RV1 (CCK-8); format: cell-based; conditions: Homo sapiens; 22RV1 cells (enzalutamide-resistant), same method
Procedure: (1) Experimental materials and instruments: LNCaP/AR cell line and 22RV1 cell line (provided by Sichuan Kangcheng Biotechnology Co., Ltd.) Fetal bovine serum FBS (Gibco, Cat. No. 10099-141) 0.01M PBS (Biosharp, Cat. No. 162262) RIPM1640 medium (Hyclone, Cat. No. 308090.01) Penicillin-Streptomycin (Hyclone, Cat. No. SV30010) Cell counting kit-8 (Signalway Antibody, Cat. No. CP002) DMSO (Sigma, Cat. No. D5879) Centrifuge Tube, 15 ml (Excell Bio, Cat. No. CS015-0001) Cell Culture Dish, (Excell Bio, Cat. No. CS016-0128) 96-well cell culture plate (Corning, Cat. No. 3599) Microplate reader (Thermo Multiskan MK3 type)
a. Preparation of Buffer Cell culture medium: RIPM1640 medium, 10% FBS, 1% Pen Strep: PBS buffer: PBS powder was dissolved in 2 L of ultrapure water and sterilized. b. Experimental Procedures 1) LNCaP/AR cells were subcultured in cell culture media, and then the cells in good growth condition were seeded in a 96-well plate at 80 μL/well (1000 cells/well), and cultured overnight in a 37° C., 5% CO2 cell incubator. 2) The drug was prepared into a 10 mM stock solution with dimethyl sulfoxide (DMSO). Prior to use, the stock solution was diluted in a ratio of […] with DMSO, and then diluted at a 3-fold gradient to obtain 9 serial concentrations. Then, each concentration of compound was further diluted in a ratio of 1:200 with the culture medium (to ensure that the DMSO concentration in the culture system was 0.1%), and two wells were set for each concentration. 20 μL of the diluted compound solution was added to the well of the cell culture (with a final concentration of 10 μM, 3.3 μM, 1.1 μM . . . ), and then the plate was gently tapped to thoroughly mix. In addition, the experiment included 3 negative control wells only containing cells and 3 blank control wells only containing culture medium (6 wells were each added with DMSO diluted in a ratio of 1:200 with 20 μL of culture medium). c. Result Detection: 1) After culturing for 6 days, 10 μL of CCK-8 was added to each well, and the plate was further incubated for 1 h in a 37° C., 5% CO2 cell incubator. 2) The absorbance (OD value) was measured at 450 nm with a multifunctional microplate reader. 3) The data was analyzed by the Dose-response-inhibition equation in the software GraphPad Prism5, and the IC50 value was obtained. 2. Biological assay of the inhibition on the proliferation of other drug-resistant prostate cancer cells
The same test method was used to determine the inhibitory activity of the compound according to the present invention against drug-resistant prostate cancer cell 22RV1.

[2] = system: LNCaP/AR cells; assay: Inhibition of the proliferation of LNCap/AR cells (CCK-8); format: cell-based; conditions: read-out: LNCap/AR IC50
In short: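 Proliferation was read by CCK-8 (OD 450 nm, 1 h) after six days of compound exposure. Cells were seeded at 1000 per well overnight, then dosed in duplicate over nine 3-fold steps with a top final concentration of 10 μM in 0.1% DMSO; IC50 was fitted from inhibition curves.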

[3] = 144 h, LNCaP/AR cells, 6 days culture, CCK-8
[4] = LNCaP/AR cells, 6 days culture, CCK-8

| SMILES | IC50 [2, 3] [µM] | further results |
| --- | --- | --- |
| Cc1ccc(-c2c(C)noc2C)cc1N(CCCCOc1ccc2c(c1)C(=O)N(C1CCC(=O)NC1=O)C2=O)c1ccc(C2(C#N)CC2)cc1 (centres unmarked) [Compound 108, 1-(4-((5-(3,5-Dimethylisoxazol-4-yl)-2-methylphenyl)(4-((2-(2,6-dioxopiperidin-3-yl)-1,3-dioxoisoindolin-5-yl)oxy)butyl)amino)phenyl)cyclopropanecarbonitrile] | > 2 | IC50 [1]: 0.501 to 2 µM |
| Cc1ccc(-c2c(C)noc2C)cc1N(CCCCNc1ccc2c(c1)CN(C1CCC(=O)NC1=O)C2=O)c1ccc(C2(C#N)CC2)cc1 (centres unmarked) [Compound 62, 1-(4-((5-(3,5-dimethylisoxazol-4-yl)-2-methylphenyl)(4-((2-(2,6-dioxopiperidin-3-yl)-1-oxoisoindolin-5-yl)amino)butyl)amino)phenyl)cyclopropane-1-nitrile] | < 0.1 | IC50 [1]: < 0.1 µM |
| Cc1ccc(-c2c(C)noc2C)cc1N(C[C@H]1CC[C@H](CNc2cc3c(cc2F)C(=O)N(C2CCC(=O)NC2=O)C3=O)CC1)c1ccc(C2(C#N)CC2)cc1 (some centres unmarked) [Compound 150] | 0.501 to 2 | – |
| Cc1ccc(-c2c(C)noc2C)cc1N(CCCCCOCC(=O)N[C@H](C(=O)N1C[C@H](O)C[C@H]1C(=O)N[C@@H](C)c1ccc(-c2scnc2C)cc1)C(C)(C)C)c1ccc(-n2ccnc2)c(C(F)(F)F)c1 [Compound 21, (2S,4R)-1-((S)-2-(2-((5-((4-(1H-imidazol-1-yl)-3-(trifluoromethyl)phenyl)(5-(3,5-dimethylisoxazol-4-yl)-2-methylphenyl)amino)pentyl)oxy)acetamido)-3,3-dimethylbutyryl)-4-hydroxy-N—((S)-1-(4-(4-methylthiazol-5-yl)phenyl)ethyl)pyrrolidine-2-carboxamide] | – | IC50 ([2]; LNCaP/AR, 144 h): 0.501 to 2 µM |
| CCn1nc(C)c(-c2ccc(C)c(N(CCCCCOCC(=O)N[C@H](C(=O)N3C[C@H](OC(C)=O)C[C@H]3C(=O)N[C@@H](C)c3ccc(-c4scnc4C)cc3)C(C)(C)C)c3ccc(C#N)c(Cl)c3)c2)c1C [Compound 82, (3R,5S)-1-((S)-2-(2-((5-((3-chloro-4-cyanophenyl)(5-(1-ethyl-3,5-dimethyl-1H-pyrazol-4-yl)-2-methylphenyl)amino)pentyl)oxy)acetamido)-3,3-dimethylbutyryl)-5-((S)-1-(4-methylthiazol-5-yl)phenyl)ethyl)carbamoyl)pyrrolidine-3-yl acetate] | – | IC50 [2, 4]: 0.101 to 0.5 µM |
| CC(=O)O[C@@H]1C[C@@H](C(=O)N[C@@H](C)c2ccc(-c3scnc3C)cc2)N(C(=O)[C@@H](NC(=O)CCN2CCC(CN(c3ccc(-n4ccnc4)c(Br)c3)c3cc(-c4c(C)noc4C)ccc3C)CC2)C(C)(C)C)C1 [Compound 99, (3R,5S)-1-((S)-2-(3-(4-(((3-Bromo-4-(1H-imidazol-1-yl)phenyl)(5-(3,5-dimethylisoxazol-4-yl)-2-methylphenyl)amino)methyl)piperidin-1-yl)propionamide)-3,3-dimethylbutyryl)-5-(((S)-1-(4-(4-methylthiazol-5-yl)phenyl)ethyl)carbamoyl)pyrrolidine-3-yl acetate] | 0.501 to 2 | – |
| Cc1cn(-c2ccc(N(CCCCCOCC(=O)N[C@H](C(=O)N3C[C@H](O)C[C@H]3C(=O)N[C@@H](C)c3ccc(-c4scnc4C)cc3)C(C)(C)C)c3cc(-c4c(C)noc4C)ccc3C)cc2)cn1 [Compound 95, (2S,4R)-1-((S)-2-(2-((5-((5-(3,5-dimethylisoxazol-4-yl)-2-methylphenyl)(4-(4-methyl-1H-imidazol-1-yl)phenyl)amino)pentyl)oxy)acetylamino)-3,3-dimethylbutyryl)-4-hydroxy-N—((S)-1-(4-(4-methylthiazol-5-yl)phenyl)ethyl)-pyrrolidinyl-2-formamide] | 0.101 to 0.5 | – |
| CC(=O)O[C@@H]1C[C@@H](C(=O)N[C@@H](C)c2ccc(-c3scnc3C)cc2)N(C(=O)[C@@H](NC(=O)COCCCCCN(c2ccc(-n3ccnc3)c(C(F)(F)F)c2)c2cc(-c3c(C)noc3C)ccc2C)C(C)(C)C)C1 [Compound 22, (3R,5S)-1-((S)-2-(2-((5-((4-(1H-imidazol-1-yl)-3-(trifluoromethyl)phenyl)(5-(3,5-dimethylisoxazol-4-yl)2-methylphenyl)amino)pentyl)oxy)acetamido)-3,3-dimethylbutyryl)-5-((S)-1-(4-methylthiazol-5-yl)phenyl)ethyl)carbamoyl)pyrrolidine-3-yl acetate] | 0.501 to 2 | – |
| CC(=O)O[C@@H]1C[C@@H](C(=O)N[C@@H](C)c2ccc(-c3scnc3C)cc2)N(C(=O)[C@@H](NC(=O)COCCCCCCCN(c2ccc(-n3ccnc3)cc2)c2cc(-c3c(C)noc3C)ccc2C)C(C)(C)C)C1 [Compound 7] | > 2 | – |
| CC(=O)O[C@@H]1C[C@@H](C(=O)N[C@@H](C)c2ccc(-c3scnc3C)cc2)N(C(=O)[C@@H](NC(=O)CN2CCC(CCN(c3ccc(-n4ccnc4)c(Br)c3)c3cc(-c4c(C)noc4C)ccc3C)CC2)C(C)(C)C)C1 [Compound 23, (3R,5S)-1-((S)-2-(2-(4-(2-((3-Bromo-4-(1H-imidazol-1-yl)phenyl)(5-(3,5-dimethylisoxazol-4-yl)-2-methylphenyl)amino)ethyl)piperidin-1-yl)acetamido)-3,3-dimethylbutanol)-5-((S)-1-(4-methylthiazol-5-yl)phenyl)ethyl)carbamoyl)pyrrolidine-3-yl acetate] | – | IC50 [2, 4]: > 2 µM |
| Cc1cn(-c2ccc(N(CCCCCOCC(=O)N[C@H](C(=O)N3C[C@H](O)C[C@H]3C(=O)N[C@@H](C)c3ccc(-c4scnc4C)cc3)C(C)(C)C)c3cc(-c4c(C)noc4C)ccc3C)cc2Br)cn1 [Compound 53] | < 0.1 | – |
| CC(=O)O[C@@H]1C[C@@H](C(=O)N[C@@H](C)c2ccc(-c3scnc3C)cc2)N(C(=O)[C@@H](NC(=O)COCC#CCN(c2ccc(-n3ccnc3)cc2)c2cc(-c3c(C)noc3C)ccc2C)C(C)(C)C)C1 [Compound 46, (3R,5S)-1-((S)-2-(2-((4-((4-(1H-imidazol-1-yl)phenyl)(5-(3,5-dimethylisoxazol-4-yl)-2-methylphenyl)amino)but-2-yn-1-yl)oxy)acetamido)-3,3-dimethylbutanol)-5-((S)-1-(4-methylthiazol-5-yl)phenyl)ethyl)carbamoyl)pyrrolidine-3-yl acetate] | – | IC50 ([2]; LNCaP/AR, 144 h): > 2 µM |
| Cc1ccc(-c2c(C)noc2C)cc1N(CCCCCOCC(=O)N[C@H](C(=O)N1C[C@H](O)C[C@H]1C(=O)N[C@@H](C)c1ccc(-c2scnc2C)cc1)C(C)(C)C)c1ccc(-n2ccnc2)c(F)c1 [Compound 14, (2S,4R)-1-((S)-2-(2-((5-((3-fluoro-4-(1H-imidazol-1-yl)phenyl)(5-(3,5-dimethylisoxazol-4-yl)-2-methylphenyl)amino)n-pentyl)oxy)acetylamino)-3,3-dimethylbutyryl)-4-hydroxy-N—((S)-1-(4-(4-methylthiazol-5-yl)phenyl)ethyl)pyrrolidinyl-2-formamide] | > 2 | – |
| CC(=O)O[C@@H]1C[C@@H](C(=O)N[C@@H](C)c2ccc(-c3scnc3C)cc2)N(C(=O)[C@@H](NC(=O)COCCCCCN(c2ccc(-n3ccnc3)cc2)c2cc3c(C)noc3cc2C)C(C)(C)C)C1 [Compound 17, (3R,5S)-1-((S)-2-(2-((5-((4-(1H-imidazol-1-yl)phenyl)(3,6-dimethylbenzo[d]isoxazol-5-yl)amino)pentyl)oxy)acetamido)-3,3-dimethylbutyryl)-5-((S)-1-(4-(4-methylthiazol-5-yl)phenyl)ethyl)carbamoyl)pyrrolidine-3-yl acetate] | > 2 | – |
| CC(=O)O[C@@H]1C[C@@H](C(=O)N[C@@H](C)c2ccc(-c3scnc3C)cc2)N(C(=O)[C@@H](NC(=O)COCCCCCN(c2ccc(-n3ccnc3)cc2)c2cc(-c3c(C)noc3C)ccc2C)C(C)(C)C)C1 [Compound 84, (3R,5S)-1-((S)-2-(2-((S-((4-(1H-imidazol-1-yl)phenyl)(5-(3,5-dimethylisoxazol-4-yl)-2-methylphenyl)amino)pentyl)oxy)acetylamino)-3,3-dimethylbutyryl)-5-(((S)-1-(4-(4-methylthiazol-5-yl)phenyl)ethyl)aminoformyl)pyrrolidinyl-3-yl acetate] | 0.501 to 2 | – |
